Results: US20260306644A1, “ANTIBODY RECRUITING MOLECULES FOR THE TREATMENT OF CORONAVIRUS DISEASE-19” (priority 2023, published 2026)
Several values for one entry are separate records, joined by “and”; a condition that tells them apart may be missing. Equal entries are not always repeated. Where two headings read alike, the source gives them in different places. Positions of bridges follow the written chain, without caps; N, C: chain ends. No end group written: not given here.

Key:
[1] = test system: Spike RBD coated magnetic beads / RAW 264.7 macrophages; assay: Antibody-dependent cellular phagocytosis (ADCP), RAW 264.7 macrophages and Spike RBD coated magnetic beads, flow cytometry; format: cell-based; conditions: 37° C., 2 hours, read-out: SARS-COV-2 ADCP EC50
Procedure: The ability of the compounds to mediate antibody-dependent cellular phagocytosis (ADCP) was assessed using RAW 264.7 macrophages and Spike RBD coated magnetic beads (https://www.acrobiosystems.com/P3194-SARS-CoV-2-Spike-RBD-coupled-Magnetic-Beads.html). Spike RBD coated magnetic beads (3 ul per well) were added to each well of a round bottom 96-well plates. RAW264.7 cells (50,000 cells per well) were added to the beads. Next, the compounds were administered to predetermined final concentrations. The cell-bead mixtures were incubated at 37° C. for 2 hours. The mixtures were then analyzed by flow cytometry.

SARS-CoV-2 Spike protein = SARS-CoV-2 Spike protein (Severe acute respiratory syndrome coronavirus 2, UniProt P0DTC2); assay: Ternary binding of SARS-CoV-2 Spike protein (293T cells expressing Spike-GFP, IgG-AF647, flow cytometry); format: cell-based; conditions: 293T cells expressing Spike-GFP; IgG-AF647 10 μg/ml; repeat values/batches listed separately; read-out: SARS-CoV-2 Ternary binding EC50
[2] = target: T1, SARS-CoV-2 Spike A (wild-type) (Severe acute respiratory syndrome coronavirus 2, UniProt P0DTC2); assay: MSD ACE2 competition assay (inhibition of Spike binding with ACE2, ECL), A (wild-type)
T1 construct: purchased Meso Scale Diagnostics, LLC V-PLEX SARS-CoV-2 Panel 13 (ACE2) Kit / Panel 23 (ACE2) Kit

[3] = IC50 Wild Type, Wild Type Spike
[4] = read-out: IC50 Wild Type, Wild Type Spike

Compound | EC50 [1] | EC50 (SARS-CoV-2 Spike protein) | IC50 [2, 3] | IC50 [2, 4]
CC[C@H](C)[C@H](NC(=O)[C@H](CC(C)C)NC(=O)[C@H](CC(=O)O)NC(=O)[C@H](CO)NC(=O)[C@@H](NC(=O)[C@H](CCCNC(=N)N)NC(=O)[C@H](CCSC)NC(=O)[C@H](CO)NC(=O)[C@H](C)NC(=O)[C@H](CCC(=O)O)NC(=O)[C@H](C)NC(=O)[C@H](Cc1c[nH]cn1)NC(=O)CNC(=O)[C@H](CC(C)C)NC(=O)[C@H](CCC(=O)O)NC(=O)[C@H](CC(=O)O)NC(=O)[C@H](CC(C)C)NC(=O)[C@H](CC(C)C)NC(=O)[C@H](CCCNC(=N)N)NC(=O)[C@H](CCSC)NC(=O)[C@@H](NC(=O)[C@H](CCC(=O)O)NC(=O)[C@H](Cc1ccc(O)cc1)NC(=O)[C@@H](NC(=O)[C@H](CCCCN)NC(=O)[C@H](CCC(N)=O)NC(=O)[C@H](CC(C)C)NC(=O)[C@@H](NC(=O)[C@H](Cc1c[nH]c2ccccc12)NC(=O)[C@H](CCC(=O)O)NC(=O)[C@H](CCCCN)NC(=O)[C@H](CC(=O)O)NC(=O)[C@@H](CCC(=O)O)NC(=O)[C@@H]1CSCC(=O)N[C@@H](C)C(=O)N[C@@H](CO)C(=O)N[C@@H](Cc2ccc(O)cc2)C(=O)N[C@@H](Cc2c[nH]cn2)C(=O)N[C@@H](CC(C)C)C(=O)NCC(=O)N[C@@H](CCC(=O)O)C(=O)N[C@@H](CC(C)C)C(=O)N[C@@H](C(C)C)C(=O)N[C@@H](Cc2c[nH]c3ccccc23)C(=O)N2Cc3ccccc3C[C@H]2C(=O)NC(C)(C)C(=O)N1)[C@@H](C)CC)[C@@H](C)CC)[C@@H](C)CC)C(C)C)C(=O)N[C@@H](Cc1ccc(O)cc1)C(=O)N[C@@H](CCC(=O)O)C(=O)N[C@@H](Cc1ccccc1)C(=O)N[C@@H](CCSC)C(=O)N[C@@H](CCCCN)C(=O)N[C@@H](CCCCN)C(=O)NCC(=O)N[C@@H](CC(=O)O)C(=O)N[C@@H](CCC(=O)O)C(=O)N[C@@H](CCCNC(=N)N)C(=O)N[C@@H](CC(C)C)C(=O)N[C@@H](CC(C)C)C(=O)N[C@@H](CCC(=O)O)C(=O)N[C@@H](CCC(=O)O)C(=O)N[C@@H](C)C(=O)N[C@@H](CCC(=O)O)C(=O)N[C@@H](CCCNC(=N)N)C(=O)N[C@@H](CC(C)C)C(=O)N[C@@H](CC(C)C)C(=O)N[C@@H](CCC(=O)O)C(=O)N[C@@H](CCC(=O)O)C(=O)N[C@H](C(=O)N[C@@H](CCC(=O)O)C(=O)N[C@@H](CCCNC(=N)N)C(=O)O)C(C)C [Compound 130] | 0.0013 µM and 0.0015 µM |  |  | 
CC[C@H](C)[C@H](NC(C)=O)C(=O)N[C@@H](CC(C)C)C(=O)N[C@@H](CCC(N)=O)C(=O)N[C@@H](CCCCN)C(=O)N[C@H](C(=O)N[C@@H](Cc1ccc(O)cc1)C(=O)N[C@@H](CCC(=O)O)C(=O)N[C@H](C(=O)N[C@@H](CCSC)C(=O)N[C@@H](CCCNC(=N)N)C(=O)N[C@@H](CC(C)C)C(=O)N[C@@H](CC(C)C)C(=O)N[C@@H](CC(=O)O)C(=O)N[C@@H](CCC(=O)O)C(=O)N[C@@H](CC(C)C)C(=O)NCC(=O)N[C@@H](Cc1c[nH]cn1)C(=O)N[C@@H](C)C(=O)N[C@@H](CCC(=O)O)C(=O)N[C@@H](C)C(=O)N[C@@H](CO)C(=O)N[C@@H](CCSC)C(=O)N[C@@H](CCCNC(=N)N)C(=O)N[C@H](C(=O)N[C@@H](CO)C(=O)N[C@@H](CC(=O)O)C(=O)N[C@@H](CC(C)C)C(=O)N[C@H](C(=O)N[C@@H](Cc1ccc(O)cc1)C(=O)N[C@@H](CCC(=O)O)C(=O)N[C@@H](Cc1ccccc1)C(=O)N[C@@H](CCSC)C(=O)N[C@@H](CCCCN)C(=O)N[C@@H](CCCCN)C(=O)NCC(=O)N[C@@H](CC(=O)O)C(=O)N[C@H]1CSSC[C@@H](C(=O)N[C@H](C(=O)O)[C@@H](C)O)NC(=O)[C@H](Cc2c[nH]c3ccccc23)NC(=O)[C@H](C(C)C)NC(=O)[C@H](CC(C)C)NC(=O)[C@H](CCC(=O)O)NC(=O)CNC(=O)[C@H](CC(C)C)NC(=O)[C@H](Cc2c[nH]cn2)NC(=O)[C@H](Cc2c[nH]c3ccccc23)NC(=O)[C@H](C)NC1=O)[C@@H](C)CC)C(C)C)[C@@H](C)CC)[C@@H](C)CC [Compound 116] |  | 0.0093 µM and 0.011 µM | > 100 nM (2×) and 114 nM | 
Ac-ILQKIYEIMRLCDELGHAEACMRVSDLIYEFMKKGDCAWHLGELVWCT-NH2 (disulfide 12-21, 37-47) [Compound 139] |  | 0.017 µM and 0.013 µM |  | 0.315 µM and 0.514 µM and 0.259 µM
CC[C@H](C)[C@H](N)C(=O)N[C@@H](CC(C)C)C(=O)N[C@@H](CCC(N)=O)C(=O)N[C@@H](CCCCN)C(=O)N[C@H](C(=O)N[C@@H](Cc1ccc(O)cc1)C(=O)N[C@@H](CCC(=O)O)C(=O)N[C@H](C(=O)N[C@@H](CCSC)C(=O)N[C@@H](CCCNC(=N)N)C(=O)N[C@@H](CC(C)C)C(=O)N[C@@H](CC(C)C)C(=O)N[C@@H](CC(=O)O)C(=O)N[C@@H](CCC(=O)O)C(=O)N[C@@H](CC(C)C)C(=O)NCC(=O)N[C@@H](Cc1c[nH]cn1)C(=O)N[C@@H](C)C(=O)N[C@@H](CCC(=O)O)C(=O)N[C@@H](C)C(=O)N[C@@H](CO)C(=O)N[C@@H](CCSC)C(=O)N[C@@H](CCCNC(=N)N)C(=O)N[C@H](C(=O)N[C@@H](CO)C(=O)N[C@@H](CC(=O)O)C(=O)N[C@@H](CC(C)C)C(=O)N[C@H](C(=O)N[C@@H](Cc1ccc(O)cc1)C(=O)N[C@@H](CCC(=O)O)C(=O)N[C@@H](Cc1ccccc1)C(=O)N[C@@H](CCSC)C(=O)N[C@@H](CCCCN)C(=O)N[C@@H](CCCCN)C(=O)NCC(=O)N[C@@H](CC(=O)O)C(=O)N[C@H]1CSSC[C@@H](C(=O)N[C@H](C(=O)O)[C@@H](C)O)NC(=O)[C@H](Cc2c[nH]c3ccccc23)NC(=O)[C@H](C(C)C)NC(=O)[C@H](CC(C)C)NC(=O)[C@H](CCC(=O)O)NC(=O)CNC(=O)[C@H](CC(C)C)NC(=O)[C@H](Cc2c[nH]cn2)NC(=O)[C@H](Cc2c[nH]c3ccccc23)NC(=O)[C@H](C)NC1=O)[C@@H](C)CC)C(C)C)[C@@H](C)CC)[C@@H](C)CC [Compound 117] |  | 0.0049 µM and 0.0044 µM | 0.0548 µM and 0.0611 µM | 
CC[C@H](C)[C@H](NC(=O)[C@H](CC(C)C)NC(=O)[C@H](CC(=O)O)NC(=O)[C@H](CO)NC(=O)[C@@H](NC(=O)[C@H](CCCNC(=N)N)NC(=O)[C@H](CCSC)NC(=O)[C@H](CO)NC(=O)[C@H](C)NC(=O)[C@H](CCC(=O)O)NC(=O)[C@H](C)NC(=O)[C@H](Cc1c[nH]cn1)NC(=O)CNC(=O)[C@H](CC(C)C)NC(=O)[C@H](CCC(=O)O)NC(=O)[C@H](CC(=O)O)NC(=O)[C@H](CC(C)C)NC(=O)[C@H](CC(C)C)NC(=O)[C@H](CCCNC(=N)N)NC(=O)[C@H](CCSC)NC(=O)[C@@H](NC(=O)[C@H](CCC(=O)O)NC(=O)[C@H](Cc1ccc(O)cc1)NC(=O)[C@@H](NC(=O)[C@H](CCCCN)NC(=O)[C@H](CCC(N)=O)NC(=O)[C@H](CC(C)C)NC(=O)[C@@H](NC(=O)[C@H](Cc1c[nH]c2ccccc12)NC(=O)[C@H](CCC(=O)O)NC(=O)[C@H](CCCCN)NC(=O)[C@@H](N)CC(=O)O)[C@@H](C)CC)[C@@H](C)CC)[C@@H](C)CC)C(C)C)C(=O)N[C@@H](Cc1ccc(O)cc1)C(=O)N[C@@H](CCC(=O)O)C(=O)N[C@@H](Cc1ccccc1)C(=O)N[C@@H](CCSC)C(=O)N[C@@H](CCCCN)C(=O)N[C@@H](CCCCN)C(=O)NCC(=O)N[C@@H](CC(=O)O)C(=O)N[C@H]1CSSC[C@@H](C(=O)N[C@H](C(=O)O)[C@@H](C)O)NC(=O)[C@H](Cc2c[nH]c3ccccc23)NC(=O)[C@H](C(C)C)NC(=O)[C@H](CC(C)C)NC(=O)[C@H](CCC(=O)O)NC(=O)CNC(=O)[C@H](CC(C)C)NC(=O)[C@H](Cc2c[nH]cn2)NC(=O)[C@H](Cc2c[nH]c3ccccc23)NC(=O)[C@H](C)NC1=O [Compound 113] |  | 0.00048 µM and 0.00047 µM | 0.0412 µM and 0.0529 µM | 
Ac-ILQKIYEIMRLLDELGHAEASMRVSDLIYEFMKKDCAWHLGELVWCT (disulfide 36-46) [Compound 118] |  | 0.00053 µM and 0.00061 µM | 0.0619 µM and 0.0625 µM | 
Ac-DCAWHLGELVWCTILQKIYEIMRLLDELGHAEASMRVSDLIYEFMKK (disulfide 2-12) [Compound 122] |  | > 0.01 µM | 0.0335 µM | 
Ac-DKEWILQKIYEIMRLLDELGHAEASMRVSDLIYEFMKKGGGGGGGGGDCAWHLGELVWCT (disulfide 49-59) [Compound 166] |  | 0.00023 µM |  | 0.0166 µM
